Test results published in US20170052170A1, “NOVEL CELL LINES AND METHODS” (priority 2009, published 2017).

Target: T1, sweet taste receptor (human T1R2 and T1R3 subunits, mouse Gα15) (Homo sapiens, UniProt Q7RTX0+Q8TE23, C757R/I191V/I486V/R317G)
T1 construct: expressed in transfected cells; host or cells: HEK293T (ATCC CRL-11268)
T1 sequence (Q8TE23 20-839 I191V/R317G/I486V): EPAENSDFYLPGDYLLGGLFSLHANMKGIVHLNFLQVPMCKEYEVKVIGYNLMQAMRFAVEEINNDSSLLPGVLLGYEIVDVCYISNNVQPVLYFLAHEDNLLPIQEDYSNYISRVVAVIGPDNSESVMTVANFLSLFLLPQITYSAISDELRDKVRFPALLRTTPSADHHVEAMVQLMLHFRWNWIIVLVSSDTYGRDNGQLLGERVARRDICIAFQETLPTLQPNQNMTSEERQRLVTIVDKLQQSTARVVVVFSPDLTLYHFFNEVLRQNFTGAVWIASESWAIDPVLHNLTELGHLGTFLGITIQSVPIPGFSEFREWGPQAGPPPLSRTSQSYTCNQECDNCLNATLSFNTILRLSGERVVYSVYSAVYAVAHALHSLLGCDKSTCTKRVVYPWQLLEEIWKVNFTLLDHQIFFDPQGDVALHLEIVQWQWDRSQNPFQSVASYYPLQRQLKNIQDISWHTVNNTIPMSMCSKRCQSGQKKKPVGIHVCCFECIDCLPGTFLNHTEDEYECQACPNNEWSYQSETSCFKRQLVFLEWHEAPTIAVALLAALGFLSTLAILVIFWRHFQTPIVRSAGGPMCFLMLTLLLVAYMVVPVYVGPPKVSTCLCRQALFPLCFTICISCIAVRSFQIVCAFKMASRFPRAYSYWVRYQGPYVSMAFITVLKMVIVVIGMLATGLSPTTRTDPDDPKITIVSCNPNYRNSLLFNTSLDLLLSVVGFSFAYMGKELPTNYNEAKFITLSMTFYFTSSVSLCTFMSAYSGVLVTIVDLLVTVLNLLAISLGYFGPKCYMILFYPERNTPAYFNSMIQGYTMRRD
T1 sequence (Q7RTX0 21-852 C757R): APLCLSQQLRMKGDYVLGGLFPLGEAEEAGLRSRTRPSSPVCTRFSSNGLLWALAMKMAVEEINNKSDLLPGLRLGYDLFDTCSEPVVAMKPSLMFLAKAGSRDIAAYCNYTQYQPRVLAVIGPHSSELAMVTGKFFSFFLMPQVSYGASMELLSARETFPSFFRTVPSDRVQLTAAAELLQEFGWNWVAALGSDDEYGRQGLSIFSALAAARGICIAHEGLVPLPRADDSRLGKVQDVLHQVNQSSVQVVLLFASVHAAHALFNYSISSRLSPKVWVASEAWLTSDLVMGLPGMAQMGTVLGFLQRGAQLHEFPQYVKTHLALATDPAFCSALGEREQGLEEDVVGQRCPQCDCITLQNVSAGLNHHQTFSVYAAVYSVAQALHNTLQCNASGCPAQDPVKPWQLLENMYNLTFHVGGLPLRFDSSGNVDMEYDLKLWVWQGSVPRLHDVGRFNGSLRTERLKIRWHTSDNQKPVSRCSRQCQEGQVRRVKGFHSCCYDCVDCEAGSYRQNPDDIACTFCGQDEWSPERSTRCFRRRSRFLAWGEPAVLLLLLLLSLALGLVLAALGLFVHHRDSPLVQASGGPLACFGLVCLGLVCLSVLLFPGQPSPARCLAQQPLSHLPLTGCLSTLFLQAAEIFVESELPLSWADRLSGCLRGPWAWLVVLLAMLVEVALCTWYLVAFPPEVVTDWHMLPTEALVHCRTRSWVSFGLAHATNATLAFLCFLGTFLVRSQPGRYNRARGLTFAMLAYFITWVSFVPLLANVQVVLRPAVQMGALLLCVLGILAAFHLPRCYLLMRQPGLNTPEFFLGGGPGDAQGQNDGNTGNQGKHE
Assay: sweet taste receptor-expressing cell-based assay (calcium flux)
Details: natural, high intensity and artificial sweeteners; FIGS. 23 and 24
Excerpt: FIG. 24 (A-C) is series of line graphs representing the data obtained in various dose response experiments using sweet taste receptor agonists in a sweet taste receptor-expressing cell-based assay (using cells of this invention). (A) The responses of a sweet taste receptor-expressing cell line to natural caloric sweeteners were plotted as a function of the agonist concentration. (B) Dose response curves of common artificial sweeteners in a sweet taste receptor-expressing cell-based assay. (C) Dose response curves of natural high-intensity sweeteners in a sweet taste receptor-expressing cell-based assay.
FIG. 25 is a series of representative response traces generated after performing a sweet taste receptor-expressing cell-based assay using cells of this invention.
To identify a taste receptor modulator (e.g., umami taste receptor modulator or sweet taste receptor modulator), one exposes a cell or cell line of the invention to a test compound under conditions in which the taste receptor (e.g., umami taste receptor or sweet taste receptor) would be expected to be functional and then detects a statistically significant change (e.g., p<0.05) in taste receptor activity (e.g., umami taste receptor activity or sweet taste receptor activity) compared to a suitable control, e.g., cells that are not exposed to the test compound. Positive and/or negative controls using known agonists or antagonists and/or cells expressing different combinations of taste receptor subunits (e.g., umami taste receptor subunits or sweet taste receptor subunits) (and optionally a G protein) may also be used. In some embodiments, the taste receptor activity (e.g., umami taste receptor activity or sweet taste receptor activity) to be detected and/or measured is calcium release from the endoplasmic reticulum as a result of the down stream signaling events following taste receptor activation (e.g., umami taste receptor activation or sweet taste receptor activation). One of ordinary skill in the art would understand that various assay parameters may be optimized, e.g., signal to noise ratio.
See, e.g., FIGS. 23 and 24.

For `O=C(CO)[C@@H](O)[C@H](O)[C@H](O)CO` [fructose], the “response of sweet taste receptor cells and cell lines to known classes of sweet compounds” value was “respond”.
